How the values were obtained:
[1] = tested on: Worthington venom exonuclease
[2] = tested on: Bovine spleen phosphodiesterase
[3] = target: T1, Spleen phosphodiesterase (5'->3' exonuclease) (Bos taurus) (UniProt Q2KJJ8); experiment: cleavage_in_vitro
T1 sequence: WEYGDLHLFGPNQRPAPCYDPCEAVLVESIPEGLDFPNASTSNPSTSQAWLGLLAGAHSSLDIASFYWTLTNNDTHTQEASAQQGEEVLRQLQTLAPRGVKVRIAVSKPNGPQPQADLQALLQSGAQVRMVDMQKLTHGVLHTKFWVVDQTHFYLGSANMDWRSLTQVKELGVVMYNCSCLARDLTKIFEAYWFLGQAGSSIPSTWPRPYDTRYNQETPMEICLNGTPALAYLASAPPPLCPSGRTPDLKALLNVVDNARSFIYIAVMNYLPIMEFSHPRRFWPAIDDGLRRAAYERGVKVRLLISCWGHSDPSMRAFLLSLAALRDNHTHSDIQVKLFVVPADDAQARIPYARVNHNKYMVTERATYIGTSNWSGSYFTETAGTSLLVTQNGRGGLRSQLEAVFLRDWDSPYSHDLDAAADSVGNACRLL

[4] = tested on: Snake venom phosphodiesterase; conditions: pH 9
E. coli RNase H = E. coli RNase H (Escherichia coli, UniProt P0A7Y4); conditions: 2 units RNase H, 60 minutes 37° C.; for ability to form RNase H substrate, 14-mer binding site: 32P-labeled runoff transcripts of pSP65-ALA-D
Bovine spleen DNase II = target: T2, Bovine spleen DNase II (Bos taurus, UniProt P56541)
T2 sequence (P56541 20-365): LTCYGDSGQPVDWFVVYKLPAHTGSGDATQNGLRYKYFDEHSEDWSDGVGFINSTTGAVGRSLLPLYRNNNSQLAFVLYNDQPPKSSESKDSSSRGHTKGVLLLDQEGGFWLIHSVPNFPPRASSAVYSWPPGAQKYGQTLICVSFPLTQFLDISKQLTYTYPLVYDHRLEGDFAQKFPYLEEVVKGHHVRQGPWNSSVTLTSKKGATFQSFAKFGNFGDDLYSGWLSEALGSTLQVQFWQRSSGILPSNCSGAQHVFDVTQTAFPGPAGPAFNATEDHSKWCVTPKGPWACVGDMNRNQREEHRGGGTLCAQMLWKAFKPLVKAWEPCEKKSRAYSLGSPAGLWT

DNase I (pancreas) = DNase I (pancreas) (Bos taurus, UniProt P00639 P00639:23-282); experiment: cleavage_in_vitro; Mg, Ca, 37 C; conditions: tags: Bethesda Research Laboratories
DNase II (spleen) = target: T3, DNase II (spleen) (Bos taurus, UniProt P56541 P56541:20-365); experiment: cleavage_in_vitro; pH 4.6, 25 C; conditions: tags: Bethesda Research Laboratories
T3 sequence: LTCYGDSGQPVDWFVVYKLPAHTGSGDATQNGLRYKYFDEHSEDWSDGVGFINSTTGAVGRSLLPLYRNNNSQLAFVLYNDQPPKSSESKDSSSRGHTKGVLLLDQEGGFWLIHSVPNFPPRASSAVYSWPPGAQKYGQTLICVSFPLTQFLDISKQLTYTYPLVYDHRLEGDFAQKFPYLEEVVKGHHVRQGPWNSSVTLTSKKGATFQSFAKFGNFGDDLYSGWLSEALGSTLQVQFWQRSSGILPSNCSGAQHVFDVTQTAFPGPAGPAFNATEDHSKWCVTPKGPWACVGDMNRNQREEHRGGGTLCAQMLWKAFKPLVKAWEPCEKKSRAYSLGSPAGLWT

[5] = target: Snake venom phosphodiesterase (3'->5' exonuclease) (Crotalus adamanteus, UniProt J3SEZ3 J3SEZ3:24-851); experiment: cleavage_in_vitro; Tris pH 9.0, 37 C; conditions: tags: Sigma
[6] = target: Venom phosphodiesterase (3'->5' exonuclease) (UniProt J3SEZ3 J3SEZ3:24-851); experiment: cleavage_in_vitro; Worthington venom exonuclease; conditions: tags: Worthington
Venom phosphodiesterase (3'->5' exonuclease), sequence (J3SEZ3 24-851, one chain of several): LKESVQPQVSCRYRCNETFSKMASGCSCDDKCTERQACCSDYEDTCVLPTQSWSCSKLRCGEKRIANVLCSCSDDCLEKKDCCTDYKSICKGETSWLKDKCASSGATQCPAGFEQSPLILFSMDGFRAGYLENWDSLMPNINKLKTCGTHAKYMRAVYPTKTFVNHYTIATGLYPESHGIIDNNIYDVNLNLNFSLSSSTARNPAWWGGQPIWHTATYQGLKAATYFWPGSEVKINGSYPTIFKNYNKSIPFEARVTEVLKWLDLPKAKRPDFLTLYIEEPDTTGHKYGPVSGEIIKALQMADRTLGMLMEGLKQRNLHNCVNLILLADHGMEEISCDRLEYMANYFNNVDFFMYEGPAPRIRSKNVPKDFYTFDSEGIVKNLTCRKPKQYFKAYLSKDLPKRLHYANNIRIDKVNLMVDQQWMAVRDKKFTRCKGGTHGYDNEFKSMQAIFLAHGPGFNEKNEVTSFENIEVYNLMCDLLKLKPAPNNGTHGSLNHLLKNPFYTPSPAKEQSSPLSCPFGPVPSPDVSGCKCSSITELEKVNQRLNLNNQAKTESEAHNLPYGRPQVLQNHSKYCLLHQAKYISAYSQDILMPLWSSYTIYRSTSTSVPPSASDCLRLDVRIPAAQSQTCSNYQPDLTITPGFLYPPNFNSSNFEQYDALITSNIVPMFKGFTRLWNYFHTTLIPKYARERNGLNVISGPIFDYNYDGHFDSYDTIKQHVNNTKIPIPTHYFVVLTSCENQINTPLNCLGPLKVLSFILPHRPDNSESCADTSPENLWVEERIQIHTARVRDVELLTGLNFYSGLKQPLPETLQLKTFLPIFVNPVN

DNase I (pancreas), sequence (P00639 23-282, one chain of several): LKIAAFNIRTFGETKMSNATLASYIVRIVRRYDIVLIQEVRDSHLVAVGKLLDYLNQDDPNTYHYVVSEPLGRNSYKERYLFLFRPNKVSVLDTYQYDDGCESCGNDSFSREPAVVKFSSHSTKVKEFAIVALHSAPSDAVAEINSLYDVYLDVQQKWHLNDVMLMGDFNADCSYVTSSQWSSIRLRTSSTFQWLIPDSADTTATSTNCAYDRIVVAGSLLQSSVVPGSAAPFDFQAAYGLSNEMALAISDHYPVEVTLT
Snake venom phosphodiesterase (3'->5' exonuclease), sequence (J3SEZ3 24-851, one chain of several): as the sequence (J3SEZ3 24-851, one chain of several) above
E. coli RNase H, sequence (P0A7Y4 whole entry): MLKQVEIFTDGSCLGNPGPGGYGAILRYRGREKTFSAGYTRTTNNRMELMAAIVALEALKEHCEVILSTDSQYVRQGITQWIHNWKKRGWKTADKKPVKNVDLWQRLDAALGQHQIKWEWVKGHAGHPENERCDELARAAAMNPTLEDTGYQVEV

## ATGCAGCTAAGTCA (chemistry not given here) [14-C/T-4]
[1]
  increase in half-life as compared to 14-C-4: two-fold

## ATGCAGCTAAGTCA (chemistry not given here) [Oligomer 14-C-4]
[2]
  observation after spleen exonuclease digestion (electrophoretic mobility of the hybrid): apparently shortened

## ATGCAGCTAAGTCA [14-C-4]
[3]; 3' methylphosphonate linkage at C4,C7,C13, all modified oligos tested more than 200 times as resistant, apparently shortened
  activity (relative half-life): > 200

## ATGCAGCTAAGTCA [14-G-4]
[3]; 3' methylphosphonate linkage at G3,G6,G11, >>200, apparently shortened
  activity (relative half-life): > 200

## ATGCAGCTAAGTCA [14-G-4] (chemistry not given here) [Oligomer 14-G-4]
[2]
  observation after spleen exonuclease digestion (electrophoretic mobility of the hybrid): apparently shortened

## ATGCAGCTAAGTCA [14-P-4]
[3]; half-time about 30 min, citrate pH 6.0, 37 C
  activity (relative half-life): 1

## ATGCAGCTAAGTCA [14-P-4] (chemistry not given here) [Oligomer 14-P-4]
[4]
  Exonuclease Relative Half-Life, Venom (3′->5′-): 1

## ATGCAGCTAAGTCA [14-T-4]
[3]; 3' methylphosphonate linkage at T2,T8,T12, >>200, apparently shortened
  activity (relative half-life): > 200

## ATGCAGCTAAGTCA [14-T-4] (chemistry not given here) [Oligomer 14-T-4]
[2]
  observation after spleen exonuclease digestion (electrophoretic mobility of the hybrid): apparently shortened

## CTGGGGCTGCAT [12-Me^5a-1]
E. coli RNase H; NcoI runoff transcript
  ability to form RNase H substrate / cleavage of RNA, 12-mer binding site: permitted cleavage of most of the RNA

## TGACTTAGCTGCAT (chemistry not given here) [Oligomer 14-P-3]
Bovine spleen DNase II; bovine
  half-life for digestion by DNase II: 10 h
Bovine spleen DNase II; pH 4.6
  Endonuclease Relative Half-Life, DNase II: 1
B95-8 cells
  Tissue Culture Stabilities, Relative Half-Life, +FCS. B95-8: 1

## TGACTTAGCTGCAT [14-A-3]
[3]; 3' methylphosphonate linkage at A3,A7,A13, >>200
  activity (relative half-life): > 200

## TGACTTAGCTGCAT [14-A-3] (chemistry not given here) [Oligomer 14-A-3]
E. coli RNase H
  ability to form RNase H substrate, 14-mer binding site: formed RNase H substrates

## TGACTTAGCTGCAT [14-C-3]
[3]; 3' methylphosphonate linkage at C4,C9,C12, >>200
  activity (relative half-life): > 200

## TGACTTAGCTGCAT [14-C-3] (chemistry not given here) [Oligomer 14-C-3]
E. coli RNase H
  ability to form RNase H substrate, 14-mer binding site: formed RNase H substrates

## TGACTTAGCTGCAT [14-Me6a-3]
[3]; 3' methylphosphonate linkage at positions 2,4,6,8,10,12, >>200
  activity (relative half-life): > 200

## TGACTTAGCTGCAT [14-Me^5a-3] (chemistry not given here)
E. coli RNase H
  ability to form RNase H substrate, 14-mer binding site: able to form RNase H substrates
B95-8 cells
  3′-exonucleolytic cleavage in tissue culture: single stepwise cleavage
  Tissue Culture Stabilities, Relative Half-Life, +FCS. B95-8: 30

## TGACTTAGCTGCAT [14-Me^5b-3] (chemistry not given here)
E. coli RNase H
  ability to form RNase H substrate, 14-mer binding site: able to form RNase H substrates
B95-8 cells
  3′-exonucleolytic cleavage in tissue culture: absence of cleavage
  Tissue Culture Stabilities, Relative Half-Life, +FCS. B95-8: 30

## TGACTTAGCTGCAT [14-Me^6a-3] (chemistry not given here)
E. coli RNase H
  ability to form RNase H substrate, 14-mer binding site: did not
B95-8 cells
  3′-exonucleolytic cleavage in tissue culture: single stepwise cleavage
  Tissue Culture Stabilities, Relative Half-Life, +FCS. B95-8: 30

## TGACTTAGCTGCAT [14-Me^6b-3] (chemistry not given here)
B95-8 cells
  3′-exonucleolytic cleavage in tissue culture: absence of cleavage
  Tissue Culture Stabilities, Relative Half-Life, +FCS. B95-8: 30

## TGACTTAGCTGCAT [14-P-3]
[3]; half-time about 30 min, citrate pH 6.0, 5 mM EDTA, 37 C
  activity (relative half-life): 1

## TGACTTAGCTGCAT [14-P-3] (chemistry not given here) [Oligomer 14-P-3, reference compound]
[4]
  Exonuclease Relative Half-Life, Venom (3′->5′-): 1
E. coli RNase H
  ability to form RNase H substrate, 14-mer binding site: formed RNase H substrates

## TGACTTAGCTGCAT (ssDNA, 3' methylphosphonate linkage at positions 2,4,6,10,12) [14-Me5a-3]
DNase I (pancreas)
  activity: 300 relative half-life
DNase II (spleen)
  activity: > 5 relative half-life

## ATGCAGCTAAGTCA (ssDNA, 3' methylphosphonate linkage at G3,G6,G11) [14-G-4]
[5]
  activity: 100 relative half-life

## TGACTTAGCTGCAT (ssDNA, 3' methylphosphonate linkage at positions 2,4,6,8,10,12) [14-Me6a-3]
DNase I (pancreas)
  activity: > 600 relative half-life
DNase II (spleen)
  activity: > 5 relative half-life

## TGACTTAGCTGCAT (ssDNA, 3' methylphosphonate linkage at positions 2,4,6,8,13) [14-Me5b-3]
DNase I (pancreas)
  activity: 12 relative half-life
DNase II (spleen)
  activity: > 5 relative half-life

## TGACTTAGCTGCAT (ssDNA, 3' methylphosphonate linkage at C4,C9,C12) [14-C-3]
DNase I (pancreas)
  activity: 6 relative half-life
DNase II (spleen)
  activity: 2 relative half-life
[5]
  activity: > 500 relative half-life

## ATGCAGCTAAGTCA (ssDNA, 3' methylphosphonate linkage at T12,C13) [14-C/T-4]
[6]
  activity: ~2 half-life relative to 14-C-4

## ATGCAGCTAAGTCA (ssDNA, 3' methylphosphonate linkage at T2,T8,T12) [14-T-4]
[5]
  activity: > 500 relative half-life

## TGACTTAGCTGCAT (ssDNA, 3' methylphosphonate linkage at positions 2,4,6,9,11,13) [14-Me6b-3]
DNase I (pancreas)
  activity: > 600 relative half-life
DNase II (spleen)
  activity: > 5 relative half-life

## TGACTTAGCTGCAT (ssDNA, 3' methylphosphonate linkage at A3,A7,A13) [14-A-3]
DNase II (spleen)
  activity: > 5 relative half-life

Reference: patent publication US7495088B1, “Modified nucleotide compounds” (Enzo Life Sciences, Inc., priority 1989, dated 2009)
